# Measured values: ChEMBL document CHEMBL1201862, “PubChem BioAssay data set” (2004)
#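 In this assay, cells in 96-well plates receive the compound at five concentrations for 48 hours. Endpoints are linearly interpolated between the surrounding concentrations. The concentration for 50% growth inhibition is given as GI50.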 Activity calls are given as the source filed them. Cut-off read from the data, not from the text of the source: active = GI50 up to about 1.1 µM and inactive = higher.
# What was measured:
# Assay in all cases: NCI tumour cell line growth inhibition, 48 h
# IGROV-1 = test system: IGROV-1
# A549 = test system: A549
# UACC-257 = test system: UACC-257
# 786-0 = test system: 786-0
# K562 = test system: K562
# SK-OV-3 = test system: SK-OV-3
# SR = test system: SR
# HCT-15 = test system: HCT-15
# BT-549 = test system: BT-549
# SF-295 = test system: SF-295
# HT-29 = test system: HT-29
# SK-MEL-2 = test system: SK-MEL-2
# UO-31 = test system: UO-31
# NCI-H522 = test system: NCI-H522
# HOP-92 = test system: HOP-92
# OVCAR-5 = test system: OVCAR-5
# RXF 393 = test system: RXF 393
# HL-60 = test system: HL-60
# OVCAR-8 = test system: OVCAR-8
# SW-620 = test system: SW-620
# SNB-19 = test system: SNB-19
# SNB-75 = test system: SNB-75
# CCRF-CEM = test system: CCRF-CEM
# U-251 = test system: U-251
# MCF7 = test system: MCF7
# EKVX = test system: EKVX
# SK-MEL-28 = test system: SK-MEL-28
# MDA-MB-231 = test system: MDA-MB-231
# A498 = test system: A498
# OVCAR-4 = test system: OVCAR-4
# HCT-116 = test system: HCT-116
# HOP-62 = test system: HOP-62
# OVCAR-3 = test system: OVCAR-3
# RPMI-8226 = test system: RPMI-8226
# SF-268 = test system: SF-268
# ACHN = test system: ACHN
# MDA-N = test system: MDA-N
# MOLT-4 = test system: MOLT-4
# Malme-3M = test system: Malme-3M
# NCI/ADR-RES = test system: NCI/ADR-RES
# SK-MEL-5 = test system: SK-MEL-5
# COLO 205 = test system: COLO 205
# NCI-H23 = test system: NCI-H23
# SN12C = test system: SN12C
# PC-3 = test system: PC-3
# T47D = test system: T47D
# MDA-MB-435 = test system: MDA-MB-435
# TK-10 = test system: TK-10
# Hs-578T = test system: Hs-578T
# NCI-H226 = test system: NCI-H226
# DU-145 = test system: DU-145
# LOX IMVI = test system: LOX IMVI
# M14 = test system: M14
# CAKI-1 = test system: CAKI-1
# UACC-62 = test system: UACC-62
# NCI-H460 = test system: NCI-H460
# KM12 = test system: KM12
# SF-539 = test system: SF-539
smiles,measurement,setting,value
Cn1c(-c2ccc(/N=N/Nc3ccc(-c4n[nH]c(=S)n4C)cc3)cc2)n[nH]c1=S,GI50,IGROV-1,10.2 µM (inactive)
same,GI50,A549,> 100 µM (inactive)
same,GI50,UACC-257,> 100 µM (inactive)
same,GI50,786-0,52 µM (inactive)
same,GI50,K562,2.82 µM (inactive)
same,GI50,SK-OV-3,20.2 µM (inactive)
same,GI50,SR,4.81 µM (inactive)
same,GI50,HCT-15,> 100 µM
same,GI50,BT-549,3.9 µM (inactive)
same,GI50,SF-295,18.3 µM (inactive)
same,GI50,HT-29,> 100 µM (inactive)
same,GI50,SK-MEL-2,5.7 µM (inactive)
same,GI50,UO-31,2.85 µM (inactive)
same,GI50,NCI-H522,4.05 µM (inactive)
same,GI50,HOP-92,2.91 µM (inactive)
same,GI50,OVCAR-5,> 100 µM (inactive)
same,GI50,RXF 393,11.6 µM (inactive)
same,GI50,HL-60,4.6 µM (inactive)
same,GI50,OVCAR-8,4.6 µM (inactive)
same,GI50,SW-620,> 100 µM (inactive)
same,GI50,SNB-19,17.7 µM (inactive)
same,GI50,SNB-75,16 µM (inactive)
same,GI50,CCRF-CEM,3.98 µM (inactive)
same,GI50,U-251,13.2 µM (inactive)
same,GI50,MCF7,12.1 µM (inactive)
same,GI50,EKVX,20.6 µM (inactive)
same,GI50,SK-MEL-28,> 100 µM (inactive)
same,GI50,MDA-MB-231,18.8 µM (inactive)
same,GI50,A498,24.9 µM (inactive)
same,GI50,OVCAR-4,> 100 µM (inactive)
same,GI50,HCT-116,25.7 µM (inactive)
same,GI50,HOP-62,20.3 µM (inactive)
same,GI50,OVCAR-3,33.3 µM (inactive)
same,GI50,RPMI-8226,2.79 µM (inactive)
same,GI50,SF-268,16.5 µM (inactive)
same,GI50,ACHN,1.99 µM (inactive)
same,GI50,MDA-N,> 100 µM (inactive)
same,GI50,MOLT-4,3.08 µM (inactive)
same,GI50,Malme-3M,> 100 µM (inactive)
same,GI50,NCI/ADR-RES,> 100 µM (inactive)
same,GI50,SK-MEL-5,3.01 µM (inactive)
same,GI50,COLO 205,56 µM (inactive)
same,GI50,NCI-H23,7.8 µM (inactive)
same,GI50,SN12C,> 100 µM (inactive)
same,GI50,PC-3,> 100 µM (inactive)
same,GI50,T47D,1.94 µM (inactive)
same,GI50,MDA-MB-435,> 100 µM (inactive)
same,GI50,TK-10,28.7 µM (inactive)
same,GI50,Hs-578T,32.1 µM (inactive)
same,GI50,NCI-H226,5.36 µM (inactive)
same,GI50,DU-145,12.8 µM (inactive)
same,GI50,LOX IMVI,16.4 µM (inactive)
same,GI50,M14,8.89 µM (inactive)
Cc1nc2c(=O)[nH]ncc2[nH]1,GI50,IGROV-1,> 100 µM (inactive)
same,GI50,A549,> 100 µM (inactive)
same,GI50,UACC-257,> 100 µM (inactive)
same,GI50,786-0,> 100 µM (inactive)
same,GI50,K562,> 100 µM (inactive)
same,GI50,CAKI-1,> 100 µM (inactive)
same,GI50,SR,> 100 µM (inactive)
same,GI50,HCT-15,> 100 µM
same,GI50,BT-549,> 100 µM (inactive)
same,GI50,SF-295,> 100 µM (inactive)
same,GI50,HT-29,> 100 µM (inactive)
same,GI50,SK-MEL-2,> 100 µM (inactive)
same,GI50,UO-31,> 100 µM (inactive)
same,GI50,OVCAR-5,> 100 µM (inactive)
same,GI50,RXF 393,> 100 µM (inactive)
same,GI50,HL-60,64 µM (inactive)
same,GI50,OVCAR-8,> 100 µM (inactive)
same,GI50,SW-620,> 100 µM (inactive)
same,GI50,UACC-62,> 100 µM (inactive)
same,GI50,SNB-19,> 100 µM (inactive)
same,GI50,SNB-75,0.968 µM (active)
same,GI50,CCRF-CEM,> 100 µM (inactive)
same,GI50,U-251,> 100 µM (inactive)
same,GI50,MCF7,> 100 µM (inactive)
same,GI50,EKVX,> 100 µM (inactive)
same,GI50,SK-MEL-28,> 100 µM (inactive)
same,GI50,MDA-MB-231,> 100 µM (inactive)
same,GI50,A498,> 100 µM (inactive)
same,GI50,HCT-116,> 100 µM (inactive)
same,GI50,HOP-62,> 100 µM (inactive)
same,GI50,OVCAR-3,> 100 µM (inactive)
same,GI50,RPMI-8226,> 100 µM (inactive)
same,GI50,SF-268,> 100 µM (inactive)
same,GI50,ACHN,> 100 µM (inactive)
same,GI50,MDA-N,> 100 µM (inactive)
same,GI50,MOLT-4,> 100 µM (inactive)
same,GI50,NCI/ADR-RES,> 100 µM (inactive)
same,GI50,SK-MEL-5,> 100 µM (inactive)
same,GI50,NCI-H460,> 100 µM (inactive)
same,GI50,COLO 205,> 100 µM (inactive)
same,GI50,NCI-H23,> 100 µM (inactive)
same,GI50,SN12C,> 100 µM (inactive)
same,GI50,KM12,84.1 µM (inactive)
same,GI50,SF-539,> 100 µM (inactive)
same,GI50,PC-3,> 100 µM (inactive)
same,GI50,T47D,> 100 µM (inactive)
same,GI50,MDA-MB-435,> 100 µM (inactive)
same,GI50,TK-10,> 100 µM (inactive)
same,GI50,Hs-578T,> 100 µM (inactive)
same,GI50,NCI-H226,> 100 µM (inactive)
same,GI50,DU-145,> 100 µM (inactive)
same,GI50,M14,> 100 µM (inactive)
CN(C)C(=O)C1CCN(Cc2c[nH]c3ccccc23)CC1,GI50,IGROV-1,> 100 µM (inactive)
same,GI50,A549,> 100 µM (inactive)
same,GI50,UACC-257,> 100 µM (inactive)
same,GI50,786-0,> 100 µM (inactive)
same,GI50,K562,> 100 µM (inactive)
same,GI50,SK-OV-3,> 100 µM (inactive)
same,GI50,CAKI-1,> 100 µM (inactive)
same,GI50,SR,> 100 µM (inactive)
same,GI50,HCT-15,> 100 µM
same,GI50,BT-549,> 100 µM (inactive)
same,GI50,SF-295,> 100 µM (inactive)
same,GI50,HT-29,> 100 µM (inactive)
same,GI50,SK-MEL-2,> 100 µM (inactive)
same,GI50,UO-31,> 100 µM (inactive)
same,GI50,NCI-H522,> 100 µM (inactive)
same,GI50,HOP-92,> 100 µM (inactive)
same,GI50,OVCAR-5,> 100 µM (inactive)
same,GI50,RXF 393,> 100 µM (inactive)
same,GI50,HL-60,> 100 µM (inactive)
same,GI50,OVCAR-8,> 100 µM (inactive)
same,GI50,SW-620,17 µM (inactive)
same,GI50,UACC-62,> 100 µM (inactive)
same,GI50,SNB-19,> 100 µM (inactive)
same,GI50,SNB-75,> 100 µM (inactive)
same,GI50,U-251,> 100 µM (inactive)
same,GI50,MCF7,> 100 µM (inactive)
same,GI50,EKVX,> 100 µM (inactive)
same,GI50,SK-MEL-28,> 100 µM (inactive)
same,GI50,MDA-MB-231,> 100 µM (inactive)
same,GI50,A498,> 100 µM (inactive)
same,GI50,OVCAR-4,> 100 µM (inactive)
same,GI50,HCT-116,> 100 µM (inactive)
same,GI50,HOP-62,> 100 µM (inactive)
same,GI50,OVCAR-3,> 100 µM (inactive)
same,GI50,RPMI-8226,> 100 µM (inactive)
same,GI50,SF-268,> 100 µM (inactive)
same,GI50,ACHN,> 100 µM (inactive)
same,GI50,MDA-N,> 100 µM (inactive)
same,GI50,MOLT-4,> 100 µM (inactive)
same,GI50,Malme-3M,> 100 µM (inactive)
same,GI50,NCI/ADR-RES,> 100 µM (inactive)
same,GI50,SK-MEL-5,> 100 µM (inactive)
same,GI50,COLO 205,> 100 µM (inactive)
same,GI50,NCI-H23,> 100 µM (inactive)
same,GI50,SN12C,> 100 µM (inactive)
same,GI50,KM12,> 100 µM (inactive)
same,GI50,PC-3,> 100 µM (inactive)
same,GI50,T47D,> 100 µM (inactive)
same,GI50,MDA-MB-435,> 100 µM (inactive)
same,GI50,TK-10,> 100 µM (inactive)
same,GI50,Hs-578T,> 100 µM (inactive)
same,GI50,NCI-H226,> 100 µM (inactive)
same,GI50,DU-145,> 100 µM (inactive)
same,GI50,LOX IMVI,> 100 µM (inactive)
same,GI50,M14,> 100 µM (inactive)
